From US10842794B2, “Use of Sigma-1 receptor agonist compounds” (MTA TÁMOGATOTT KUTATÓCSOPORTOK IRODÁJA, priority 2014, dated 2020)

What was measured:
[1] = system: rat model of bleomycin-induced lung fibrosis; assay: Rat model of bleomycin induced pulmonary fibrosis: Masson trichrome staining of lung; assay type: in vivo; conditions: fluvoxamine 20 mg/bwkg/day per os
Description: Masson trichrome staining of tissue sections was performed Bars represent Mean±SEM, n=6/group). Specifically:
For the induction of pulmonary fibrosis male Wistar rats were anesthetized. Bleomycin (5 mg/bwkg in a 300 μl solution of isotonic saline) or 300 μl isotonic saline was administered into the trachea using a 30G needle.
Animals were randomly divided into 4 groups of 6 rats each as follows (i)—control group was sham operated, received isotonic saline per os daily for 3 weeks, (ii) vehicle treated group: received isotonic saline per os daily for 3 weeks after the induction of lung fibrosis, (iii) fluvoxamine treated group: received fluvoxamine (20 mg/bwkg/day per os for 3 weeks after the induction of lung fibrosis), (iv) fluvoxamine+NE100 treated group: received fluvoxamine (20 mg/bwkg/day; per os) and 1 mg/bwkg/day NE100 (i.p. for 3 weeks after the induction of lung fibrosis. […]
The stained sections were viewed and photographed with Pannoramic 250 Flash and Pannoramic Viewer 1.15.2 (3D HISTECH Ltd. Budapest, Hungary) Adobe Photoshop 13.0 and Scion Image for Windows software were used for the analysis. […] Finally these ratios were statistically analyzed in all of the treatment groups.

[2] = system: mice with unilateral ureter obstruction (UUO); assay: Mice model of UUO: αSMA protein in kidney, western blot; assay type: in vivo; conditions: one week fluvoxamine treatment 20 mg/bwkg/day
[3] = system: collagen I and collagen III mRNA in NRK49F cells; assay: TGFβ-induced collagen-1 and collagen-3 production, quantitative RT-PCR; assay type: cell-based, rat; conditions: 20 μM/L fluvoxamine
[4] = system: FN1, COL1A1 and MMP2 mRNA in HTM-5 cells; assay: Fibrotic marker mRNA expression in HTM-5 cells (RT-PCR); assay type: cell-based, human; conditions: normalised to RN18S
[5] = system: Streptozotocin induced type 1 diabetic rats; assay: Diabetic rat kidney: PAS staining, mesangial matrix expansion; assay type: in vivo
NRK49F cells = assay: Cell viability MTT assay in myofibroblasts; assay type: cell-based, rat; conditions: 24-hours treatment, commonly used doses 1-10 μM
[6] = system: Streptozotocin induced type 1 diabetic rats; assay: Diabetic rat kidney: αSMA protein level, western blot; assay type: in vivo; conditions: fluvoxamine, predominantly the dose of 20 mg

## COCCCC/C(=N\OCCN)c1ccc(C(F)(F)F)cc1 [fluvoxamine, 2-{[(E)-{5-Methoxy-1-[4-(trifluoromethyl)phenyl]pentylidene}amino]oxy}ethanamine]
[1]
  fibrotic lesions of the lung after bleomycin (Masson trichrome): prevented almost totally the fibrotic effect of bleomycin
[2]
  UUO-induced αSMA production in kidney: successfully decreased UUO-induced αSMA production
[3]; by 24 hours
  mRNA expression of collagen-1 and collagen-3: remarkably diminished
[3]; by 48 hours
  collagen production (collagen-1 and collagen-3 mRNA): returned to the level of normal controls
[4]; 20 ng/ml PDGF plus 5 μM FLU
  COL1A1 (collagen1a1) mRNA expression: inhibit the expression of each fibrosis marker tested in a dose dependent manner
  FN1 (fibronectin) mRNA expression: inhibit the expression of each fibrosis marker tested in a dose dependent manner
[4]; 20 ng/ml PDGF plus 10 μM FLU
  MMP2 (matrix metalloproteinase 2) mRNA expression: inhibit the expression of each fibrosis marker tested in a dose dependent manner
[5]; all doses of fluvoxamine
  extent of mesangial matrix expansion (PAS): remarkably diminished
[5]; long-term (7-weeks) fluvoxamine treatment
  prevention of renal tissue damage (PAS), comparison of regimens: most effective in preventing renal tissue damage
NRK49F cells
  cytotoxicity / cell viability in myofibroblasts: not cytotoxic
[6]
  αSMA protein level in kidney of diabetic rats: reduced αSMA protein level by the half
